`CCNc1nc(N)nc(=O)[nH]1`: the logP is -0.3.

In the case of `O=c1[nH]c(=O)[nH]c(=O)[nH]1`, the logP was -0.47.

`CCN(CC)c1nc(N)nc(Cl)n1` returned a logP of 2.12.

In the case of `CCNc1nc(NCC)[nH]c(=O)n1`, the logP came out at 0.35.

Turning to `Nc1nc(N)[nH]c(=O)n1`, the logP is -0.46.

Compound `CC(C)(C)Nc1nc(N)[nH]c(=O)n1` came in with a logP of 0.43.

On to `Nc1nc(N)nc(NC2CC2)n1`, for which the logP amounted to 0.05.

Consider `COc1nc(N)nc(NC(C)(C)C)n1`, for which the logP is 1.93.

`CCNc1nc(NC(C)(C)C)nc(=O)[nH]1` returned a logP of 1.5.

`Nc1nc(N)nc(Cl)n1` returned a logP of 0.11.

Take `CNc1nc(NC)nc(NC(C)C)n1`: the logP was determined as 1.87.

The compound `CCC(C)Nc1nc(N)nc(Cl)n1` (centres undefined) displayed a logP of 1.78.

On to `CC(C)Nc1nc(N)[nH]c(=O)n1`, for which the logP was -0.08.

`CCNc1nc(NC(C)C)nc(=O)[nH]1` registered a log partition coefficient (logP) of 0.76.

Consider `Cc1nnc(-c2ccccc2)c(=O)n1N`, for which the logP is 0.98.

`CCNc1nc(N)nc(OC)n1` registered a logP of 0.83.

The compound `COc1nc(NC(C)C)nc(NC(C)C)n1` gave a log partition coefficient (logP) of 2.6.

As for `CCNc1nc(N=[N+]=[N-])nc(NC(C)C)n1`, the logP worked out at 2.57.

The compound `Nc1nc(N)nc(N)n1` showed a logP of -0.4.
